The text below walks through data of PMC8948797 (International Journal of Molecular Sciences, 2022).

This assay relates to hALN. Briefly: cytoplasmic calcium measurements (Fluo-8) in hALN. The format is cell-based, human. Conditions: 50 mM KCl, 21–30-day-old hALN, Figure S2. The source says:
Figure 3 Characterization of the hALN. (A) 1 s-long depolarizing, and hyperpolarizing pulses injected into a hALN neuron. […] (E) Representative image of Fluo-8-loaded cells and region of interest for individual cells for intensity measurements (white line). […] Data are presented as fluorescence intensity in arbitrary units.
To test the effect of NPFFR2 on the cytoplasmic calcium dynamics, we measured intracellular calcium concentrations using hALNs loaded with Fluo-8. Typically, neurons display calcium oscillations with synchronized patterns, as cells become mature and capable of forming electrical connections with one another. We first recorded basal spontaneous activity in 21–30-day old hALNs and observed synchronized calcium oscillations in 30–70% of cells (Figure 3D–F).
In 8 ± 3% cells, we detected no change, and the remaining 13 ± 5% cells increased their oscillation rate (n = 12).
Cytosolic (Ca2+)i was measured using Ca^2+ indicator Fluo-8. […] Baseline signal was measured at 488 nm excitation and 510 nm emission using inCell analyzer 2000 for 5 min. […] After the background subtraction, calcium responses were processed and analyzed using ImageJ. Mean intensity over time was measured in ROIs including cytoplasmic soma area of individual cells and their traceable extensions. […] Data are presented as fluorescence intensity in arbitrary units. […]

For the compound `[Cl-].[K+]` [KCl], the “cytoplasmic calcium response to KCl” value is given as “induced a cytoplasmic calcium transient increase”.
